Consider four molecules from patent US20260335282A1, “NOVEL 3-ARYLIDENE-2-INDOLINONE DERIVATIVES FOR THERAPEUTIC USE” (ISTANBUL UNIVERSITESI REKTORLUGU, priority 2022, published 2026).

Holding throughout (format): cell-based, human
For assay [1], the system named is general tyrosine kinase activity in MIA PaCa-2 pancreas cancer cells. The experiment in a line: General tyrosine kinase activity (ELISA) in MIAPaCa-2 cells. The following applies: 72 hours, IC50 concentration. The protocol:
Takara Universal Tyrosine Kinase Assay Kit is used to determine the effects of 11 2-indolinone compounds (Y1, Y2, Y3, Y4, Y5, Y8, […], […], Y21, Y23, 20C, 22C) on general tyrosine kinase activity in cancer cells. Cells are seeded in 6-well plates (4.10^5 cells/well) and the IC50 concentration of each selected molecule is performed to the cells for 48 or 72 hours. Cells in the control group are incubated with medium only. At the end of the incubation period, the cells in each well are washed with PBS and cells are removed from the wells using a cell scraper via 1 ml of the extraction buffer in the kit. The cell lysate is transferred to ependorf tubes and centrifuged at 10.000 g for 10 minutes at +4° C. and the supernatant is used as a sample for activity determination. After the extracts obtained from the control and experimental groups are diluted 1:25, 40 μl extracts is transferred to two wells in the 96-well plate in the kit. In addition, the standard solution in the kit is diluted according to the kit instructions and each concentration is transferred 40 μl into three wells. 10 μl of 40 mM ATP-2Na solution is added to all wells and the plate is incubated at 37° C. for 30 minutes. After incubation, all wells are washed 4 times with wash buffer. 100 μl of blocking solution is added to each well and incubated again at 37° C. for 30 minutes. After incubation, the liquid in the wells is discarded and 50 μl of anti-phosphotyrosine-HRP solution is added to each well and incubated at 37° C. for 30 minutes. The wells are washed again four times with wash buffer and 100 μl of HRP-substrate solution (TMBZ) is added to each well and incubated at 37° C. for 15 minutes. The reaction is finished by adding 100 μl of stop solution to each well and the optical density in each well is measured at 405 nm with a microplate reader (BioTek, USA). The tyrosine kinase activity in each sample is calculated from the standard curve obtained from the absorbance values of the standard solutions with the kit (Chan W Y, Lau P M, Yeung K W, Kong S K. The second generation tyrosine kinase inhibitor dasatinib induced eryptosis in human erythrocytes—An in vitro study. Toxicol Lett. 2018; 295:10-21). This activity is normalized compared to the control group by dividing by the amount of protein in each sample.
The effects of 11 2-indolinone compounds (Y1, Y2, Y3, Y4, Y5, Y8, Y14, Y21, Y23, 20C and 22C) having the structure of formula (5), which are prominent with their cytotoxicity in A498, MIAPaCa-2 and HCT-116 cancer cell lines and nontoxic properties in healthy cells, on general tyrosine kinase activity in cancer cells are determined.

The test system of assay [2] is HUVEC cells. The experiment in a line: MTT cytotoxicity, healthy cells HUVEC. The following applies: for Selectivite Index, HUVEC (Table 2): HUVEC vs colon or pancreas cancer cells; for Selectivite Index, HUVEC (Table 2) / Selectivite Index (SI), HUVEC (Table 1): cancer line not given; for IC50: MTT; for Selectivite Index (SI), HUVEC (Table 1): HUVEC vs breast or kidney cancer cells. Summed up:
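Healthy HUVEC cells grew in DMEM, cancer lines in RPMI-1640 or DMEM with 10% FBS. After overnight attachment, compounds (0.1, 1, 5, 10 μM) act for 48 and/or 72 h before a 4 h MTT step and 570/630 nm reading; IC50 is taken from dose-response curves.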

For assay [3], the system named is MIAPaCa-2 cells. The experiment in a line: MTT cytotoxicity, pancreas cancer cells MIAPaCa-2. The following applies: for selectivity index: MCF-10F/Beas2b vs MIAPaCa-2. Summed up: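 Cells were seeded at 5000 per well and treated next day with compound at 0.1, 1, 5 and 10 μM (final) for 48 and/or 72 h, with matched DMSO controls. MTT was added for 4 h and formazan was dissolved in DMSO and read at 570/630 nm. % viability against control gave IC50 from dose-response curves.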

Setting [4] is: no * mark (incubation time not specified).
[5] abbreviates: MTT, no * mark (incubation time not specified).

Values joined by “and” are separate entries in the source; they are usually repeats but may differ in a detail not shown here. Equal values may be shown once. “Also recorded” adds a separate entry of the source.

Regarding `O=C1/C(=C\c2c[nH]c3ccccc23)c2ccccc2N1Cc1ccccc1` [Y1], the “general tyrosine kinase activity compared to control” value in assay [1] is “significantly decreased; also recorded: decreased the general tyrosine kinase activity”. For the same molecule, the “Selectivite Index, HUVEC (Table 2)” value in assay [2] is 6.60. Besides, the results for the IC50 in assay [2] (setting [4]) and in assay [3] (setting [5]) were 2.84 µM and 0.43 µM, respectively. The molecule further showed a selectivity index in assay [3] of over 23.
In the case of `Cc1ccc2c(c1)/C(=C/c1c[nH]c3ccccc13)C(=O)N2Cc1ccccc1` [Y3], the “general tyrosine kinase activity compared to control” value in assay [1] is “significantly decreased; also recorded: decreased the general tyrosine kinase activity”. Moreover, in assay [2], the “Selectivite Index (SI), HUVEC (Table 1)” value is on record as 1.89 and the “Selectivite Index, HUVEC (Table 2)” value is 12.69. The IC50 (in general, the concentration that inhibits the measured activity by half) in assay [2] (Homo sapiens, HUVEC, no * mark (incubation time not given)) is 1.65 µM. For the same molecule, in assay [3] (Homo sapiens, MIA PaCa-2, MTT, no * mark (incubation time not given)), the IC50 turned out to be 0.13 µM. The molecule further came in with a selectivity index in assay [3] of over 77.
On to `O=C1/C(=C\c2c[nH]c3ccccc23)c2cc(OC(F)(F)F)ccc2N1Cc1ccccc1` [Y4], for which, in assay [1], the “general tyrosine kinase activity compared to control” value is given as “significantly decreased; also recorded: decreased the general tyrosine kinase activity”. Also, the “Selectivite Index, HUVEC (Table 2)” value in assay [2] was 4.28 and 4.60. Moreover, the half-maximal inhibitory concentration (IC50) was found to be 2.44 µM in assay [2] (setting [4]) and 0.53 µM in assay [3] (setting [5]). In addition, in assay [3], the selectivity index is on record as over 19.
Turning to `Cc1ccc2c(c1)/C(=C/c1c[nH]c3ccccc13)C(=O)N2Cc1cccc(F)c1` [Y8], the “general tyrosine kinase activity compared to control” value in assay [1] was “significantly decreased; also recorded: decreased the general tyrosine kinase activity”. Also, in assay [2], the “Selectivite Index (SI), HUVEC (Table 1)” value stood at 2.36 and the “Selectivite Index, HUVEC (Table 2)” value amounted to 4.07. In assay [2] (setting [4]), this molecule registered an IC50 of 2.2 µM. The same molecule displayed a selectivity index in assay [3] of over 19. The IC50 in assay [3] (setting [5]) worked out at 0.54 µM.
